Test results taken from ChEMBL document CHEMBL6109152, “Harnessing the SPOP E3 Ubiquitin Ligase via a Bridged Proteolysis Targeting Chimera (PROTAC) Strategy for Targeted Protein Degradation” (J Med Chem, 2025).
Active and inactive are the calls of the source. No cut-off for these calls is given here.

Legend:
[1] = target: T1, Speckle-type POZ protein-Bromodomain-containing protein 3 (Homo sapiens) (UniProt Q15059+O43791); test: PROTAC activity at SPOP/BRD3 in human MDA-MB-231 cells assessed as induction of BRD3 degradation at 0.1 to 5 uM incubated for 24 hrs by Western blot analysis; assay type: cell-based; conditions: dose 0.1-5 µM
T1 sequence (O43791 whole entry, looked up): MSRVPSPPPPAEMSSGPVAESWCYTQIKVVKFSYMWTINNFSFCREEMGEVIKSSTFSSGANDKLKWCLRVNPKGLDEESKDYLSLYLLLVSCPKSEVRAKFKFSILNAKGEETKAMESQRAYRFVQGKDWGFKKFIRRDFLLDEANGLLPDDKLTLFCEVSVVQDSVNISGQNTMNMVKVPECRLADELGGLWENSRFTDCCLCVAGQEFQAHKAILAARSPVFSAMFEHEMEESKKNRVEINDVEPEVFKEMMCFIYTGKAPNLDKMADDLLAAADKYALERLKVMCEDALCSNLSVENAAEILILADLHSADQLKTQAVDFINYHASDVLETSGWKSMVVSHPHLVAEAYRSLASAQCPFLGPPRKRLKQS
T1 sequence (Q15059 whole entry, looked up): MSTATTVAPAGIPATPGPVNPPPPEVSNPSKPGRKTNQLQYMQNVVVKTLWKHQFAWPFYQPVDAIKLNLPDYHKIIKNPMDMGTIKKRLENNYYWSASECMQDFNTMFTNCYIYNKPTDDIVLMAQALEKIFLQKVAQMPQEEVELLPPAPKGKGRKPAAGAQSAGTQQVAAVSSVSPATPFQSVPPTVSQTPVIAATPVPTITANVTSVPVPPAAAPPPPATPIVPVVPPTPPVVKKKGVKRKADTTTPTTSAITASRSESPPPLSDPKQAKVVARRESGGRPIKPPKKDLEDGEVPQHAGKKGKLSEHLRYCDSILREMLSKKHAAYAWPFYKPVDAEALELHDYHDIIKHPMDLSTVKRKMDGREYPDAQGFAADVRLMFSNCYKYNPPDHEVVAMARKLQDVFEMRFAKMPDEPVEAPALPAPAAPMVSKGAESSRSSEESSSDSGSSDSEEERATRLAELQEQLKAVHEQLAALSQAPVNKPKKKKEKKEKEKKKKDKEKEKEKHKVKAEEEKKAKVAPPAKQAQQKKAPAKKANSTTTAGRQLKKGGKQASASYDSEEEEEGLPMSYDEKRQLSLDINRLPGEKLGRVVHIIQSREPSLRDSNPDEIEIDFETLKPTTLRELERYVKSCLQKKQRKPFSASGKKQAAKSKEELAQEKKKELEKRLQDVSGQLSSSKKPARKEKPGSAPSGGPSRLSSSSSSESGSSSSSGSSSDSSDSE

[2] = target: T2, Bromodomain-containing protein 4 (Homo sapiens, UniProt O60885); test: Inhibition of BRD4 in human HT-29 cells assessed as decrease in c-MYC protein level by measuring fold change at 2.5 uM incubated for 24 hrs by Western blot analysis (reference value: 1.00); assay type: cell-based
[3] = target: T2, Bromodomain-containing protein 4; test: Inhibition of BRD4 in human HT-29 cells assessed as decrease in c-MYC protein level by measuring fold change at 10 uM incubated for 24 hrs by Western blot analysis (reference value: 1.00); assay type: cell-based
[4] = target: T3, Speckle-type POZ protein-Bromodomain-containing protein 2 (Homo sapiens) (UniProt P25440+O43791); test: PROTAC activity at SPOP/BRD2 in human HT-29 cells assessed as induction of BRD2 degradation by measuring fold change at 0.313 uM incubated for 24 hrs by Western blot analysis (reference value: 1.00); assay type: cell-based
T3 sequence (O43791 whole entry, looked up): as the sequence (O43791 whole entry, looked up) above
T3 sequence (P25440 whole entry, looked up): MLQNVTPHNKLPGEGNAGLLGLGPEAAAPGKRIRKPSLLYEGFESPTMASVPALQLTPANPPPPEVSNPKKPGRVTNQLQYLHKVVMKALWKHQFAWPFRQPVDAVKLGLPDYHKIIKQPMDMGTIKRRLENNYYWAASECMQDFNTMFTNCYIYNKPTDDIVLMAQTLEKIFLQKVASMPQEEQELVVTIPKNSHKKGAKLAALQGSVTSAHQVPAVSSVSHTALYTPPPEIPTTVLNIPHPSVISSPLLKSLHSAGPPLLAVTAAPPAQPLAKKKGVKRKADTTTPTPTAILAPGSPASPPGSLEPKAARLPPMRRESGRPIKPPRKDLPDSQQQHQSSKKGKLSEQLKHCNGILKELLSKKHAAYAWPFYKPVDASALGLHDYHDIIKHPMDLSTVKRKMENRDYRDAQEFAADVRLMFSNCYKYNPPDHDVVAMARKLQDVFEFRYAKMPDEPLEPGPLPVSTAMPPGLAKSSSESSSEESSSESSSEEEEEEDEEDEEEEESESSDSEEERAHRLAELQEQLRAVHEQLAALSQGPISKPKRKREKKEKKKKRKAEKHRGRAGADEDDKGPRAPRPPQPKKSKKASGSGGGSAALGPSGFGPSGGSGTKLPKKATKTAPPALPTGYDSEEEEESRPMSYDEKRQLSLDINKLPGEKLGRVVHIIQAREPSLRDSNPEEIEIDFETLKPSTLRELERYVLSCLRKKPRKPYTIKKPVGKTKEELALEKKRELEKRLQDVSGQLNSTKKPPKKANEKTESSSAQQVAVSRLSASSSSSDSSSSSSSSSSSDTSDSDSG

[5] = target: T1, Speckle-type POZ protein-Bromodomain-containing protein 3 (Homo sapiens); test: PROTAC activity at SPOP/BRD3 in human HT-29 cells assessed as induction of BRD3 degradation by measuring fold change at 1.25 uM incubated for 24 hrs by Western blot analysis (reference value: 1.00); assay type: cell-based
[6] = target: T4, Speckle-type POZ protein-Bromodomain-containing protein 4 (Homo sapiens, UniProt O60885+O43791); test: PROTAC activity at SPOP/BRD4-S in human HT-29 cells assessed as induction of BRD4 short isoform degradation by measuring fold change at 5 uM incubated for 24 hrs by Western blotting analysis (reference value: 1.00); assay type: cell-based
T4 sequence (O43791 whole entry, looked up, other chains not shown, canonical isoform): as the sequence (O43791 whole entry, looked up) above

[7] = target: T3, Speckle-type POZ protein-Bromodomain-containing protein 2 (Homo sapiens); test: PROTAC activity at SPOP/BRD2 in human HT-29 cells assessed as induction of BRD2 degradation by measuring fold change at 0.625 uM incubated for 24 hrs by Western blot analysis (reference value: 1.00); assay type: cell-based
[8] = test system: HT-29; test: Effect on BRD4 short isoform mRNA level in human HT-29 cells at 1 to 10 uM incubated for 24 hrs by RT-qPCR analysis; assay type: functional, cell-based; conditions: dose 1-10 µM
[9] = target: T4, Speckle-type POZ protein-Bromodomain-containing protein 4; test: PROTAC activity at SPOP/BRD4-S in human HT-29 cells assessed as induction of BRD4 short isoform degradation at 5 uM incubated for 24 hrs by Western blotting analysis relative to control; assay type: cell-based
[10] = target: T2, Bromodomain-containing protein 4; test: Inhibition of BRD4 in human HT-29 cells assessed as decrease in c-MYC protein level at 5 uM measured after 2 hrs by Western blot analysis; assay type: cell-based
[11] = target: T2, Bromodomain-containing protein 4; test: Inhibition of BRD4 in human HT-29 cells assessed as decrease in c-MYC protein level by measuring fold change at 0.625 uM incubated for 24 hrs by Western blot analysis (reference value: 1.00); assay type: cell-based
[12] = target: T2, Bromodomain-containing protein 4; test: Inhibition of BRD4 in human HT-29 cells assessed as decrease in c-MYC protein level at 5 uM measured after 16 hrs by Western blot analysis relative to control; assay type: cell-based
[13] = target: T2, Bromodomain-containing protein 4; test: Inhibition of BRD4 in human HT-29 cells assessed as decrease in c-MYC protein level by measuring fold change at 0.313 uM incubated for 24 hrs by Western blot analysis (reference value: 1.00); assay type: cell-based
[14] = target: T3, Speckle-type POZ protein-Bromodomain-containing protein 2 (Homo sapiens); test: PROTAC activity at SPOP/BRD2 in human HT-29 cells assessed as induction of BRD2 degradation by measuring fold change at 2.5 uM incubated for 24 hrs by Western blot analysis (reference value: 1.00); assay type: cell-based
[15] = test system: HT-29; test: Effect on BRD4 long isoform mRNA level in human HT-29 cells at 1 to 10 uM incubated for 24 hrs by RT-qPCR analysis; assay type: functional, cell-based; conditions: dose 1-10 µM
[16] = target: T1, Speckle-type POZ protein-Bromodomain-containing protein 3 (Homo sapiens); test: PROTAC activity at SPOP/BRD3 in human HT-29 cells assessed as induction of BRD3 degradation by measuring fold change at 0.313 uM incubated for 24 hrs by Western blot analysis (reference value: 1.00); assay type: cell-based
[17] = target: T4, Speckle-type POZ protein-Bromodomain-containing protein 4; test: PROTAC activity at SPOP/BRD4-L in human HT-29 cells assessed as induction of BRD4 long isoform degradation at 5 uM measured after >=48 hrs by Western blotting analysis; assay type: cell-based
[18] = target: T4, Speckle-type POZ protein-Bromodomain-containing protein 4; test: PROTAC activity at SPOP/BRD4-S in human HT-29 cells assessed as induction of BRD4 short isoform degradation by measuring fold change at 0.156 uM incubated for 24 hrs by Western blotting analysis (reference value: 1.00); assay type: cell-based
[19] = target: T1, Speckle-type POZ protein-Bromodomain-containing protein 3 (Homo sapiens); test: PROTAC activity at SPOP/BRD3 in human HT-29 cells assessed as induction of BRD3 degradation by measuring fold change at 0.156 uM incubated for 24 hrs by Western blot analysis (reference value: 1.00); assay type: cell-based
[20] = test system: HT-29; test: Binding affinity to BRD4-L/GLP/SPOP in human HT-29 cells assessed as compound-BRD4-GLP-SPOP quaternary complex formation at 20 to 100 uM incubated for 1 hrs by pulldown based Western blot analysis; assay type: cell-based; conditions: dose 20-100 µM
[21] = target: T3, Speckle-type POZ protein-Bromodomain-containing protein 2 (Homo sapiens); test: PROTAC activity at SPOP/BRD2 in human HT-29 cells assessed as induction of BRD2 degradation by measuring fold change at 5 uM incubated for 24 hrs by Western blot analysis (reference value: 1.00); assay type: cell-based
[22] = target: T3, Speckle-type POZ protein-Bromodomain-containing protein 2 (Homo sapiens); test: PROTAC activity at SPOP/BRD2 in human MDA-MB-231 cells assessed as induction of BRD2 degradation at 0.1 to 5 uM incubated for 24 hrs by Western blot analysis; assay type: cell-based; conditions: dose 0.1-5 µM
[23] = test system: HEK293T; test: Binding affinity to BRD4-L/GLP/SPOP in HEK293T cells assessed as compound-BRD4-GLP-SPOP quaternary complex formation at 20 to 100 uM incubated for 1 hrs by pulldown based Western blot analysis; assay type: cell-based; conditions: Homo sapiens, dose 20-100 µM
[24] = target: T4, Speckle-type POZ protein-Bromodomain-containing protein 4; test: PROTAC activity at SPOP/BRD4-S in human HT-29 cells assessed as induction of BRD4 short isoform degradation by measuring fold change at 0.313 uM incubated for 24 hrs by Western blotting analysis (reference value: 1.00); assay type: cell-based

COc1cc2c(NC3CCN(CCCC(=O)NCCCCCCCCCCNC(=O)C[C@@H]4N=C(c5ccc(Cl)cc5)c5c(sc(C)c5C)-n5c(C)nnc54)CC3)cc(N3CCOCC3)nc2cc1OCCCN1CCCC1
Activity [1]: Active | fold change (FC) [2]: 0.1 | fold change (FC) [3]: 0.03 | fold change (FC) [4]: 1.2 | fold change (FC) [5]: 0.7 | fold change (FC) [6]: 0.4 | fold change (FC) [7]: 1.1 | Activity [8]: inactive | Activity [9]: > 50% | inhibition [10]: Active | fold change (FC) [11]: 0.7 | inhibition [12]: 100% | fold change (FC) [13]: 1 | fold change (FC) [14]: 1 | Activity [15]: inactive | fold change (FC) [16]: 0.9 | Activity [17]: Active | fold change (FC) [18]: 1 | fold change (FC) [19]: 1 | Activity [20]: Active | fold change (FC) [21]: 0.9 | Activity [22]: Active | Activity [23]: Active | fold change (FC) [24]: 1.2
